This passage reports Activity and IC50 results from ChEMBL document CHEMBL2417478, “Farnesides A and B, sesquiterpenoid nucleoside ethers from a marine-derived Streptomyces sp., strain CNT-372 from Fiji” (J Nat Prod, 2013).

One experiment has as its system Influenza A virus. Kind of experiment: Antiviral activity against influenza A virus by plaque inhibition assay. The experiment is classed as functional, organism-based.
Another experiment deals with HCT-116. As to the kind of experiment: Cytotoxicity against human HCT116 cells. The experiment is classed as functional, cell-based.
For another experiment, the system named is Staphylococcus aureus. Kind of experiment: Antibacterial activity against methicillin-resistant Staphylococcus aureus. The experiment is classed as functional, organism-based.
A further experiment relates to Plasmodium falciparum. As to the kind of experiment: Antimalarial activity against Plasmodium falciparum 3D7 MRA-102, MR4/ATCC infected in human erythrocytes assessed as inhibition of parasite proliferation after 72 hrs by SYBR green assay. Format: functional, organism-based.

Each structure is given as a SMILES string. pIC50: −log10 of the molar value. The source made the active and inactive calls. The rule behind the calls is not given here.

Take `CC(C)=CCC[C@@](C)(O)[C@@H](O)CC/C(C)=C/COC[C@H]1O[C@@H](N2CCC(=O)NC2=O)[C@H](O)[C@@H]1O`: the result in the experiment on Influenza A virus, in the experiment with HCT-116 and with Staphylococcus aureus was inactive.

In the case of `CC(C)=CCC[C@@]1(C)O[C@@H]1CC/C(C)=C/COC[C@H]1O[C@@H](N2CCC(=O)NC2=O)[C@H](O)[C@@H]1O`, the negative logarithm of the IC50 (pIC50) (commonly −log10 of the IC50, conventionally taken in molar units) in the experiment on Plasmodium falciparum was 4.16. Further, the result in the experiment on Influenza A virus, in the experiment with HCT-116 and with Staphylococcus aureus was inactive.

`CC(C)=CCC/C(C)=C/COC[C@H]1O[C@@H](N2CCC(=O)NC2=O)[C@H](O)[C@@H]1O`: the outcome in the experiment with Influenza A virus was Active.
